pIC50: −log10 of the molar value. Values after ≈ are worked out from the molar mass of the structure shown. Like-named read-outs stand apart in the source and are kept apart here.
Tests used:
[1] = Partitioning into red blood cells; type: in vitro ADME
[2] = Bile duct cannulation / excretion study in rats; type: in vivo, Sprague-Dawley rats
[3] = First-in-human SAD study, safety and tolerability; type: in vivo, healthy human volunteers; settings: single IV infusion 120-1050 mg
[4] = First-in-human SAD study, PK; type: in vivo, healthy human volunteers; settings: for half-life: both, human, plasma, iv
[5] = Hepatocyte stability / intrinsic clearance; type: in vitro ADME, dog
[6] = test system: P. aeruginosa; test: Neutropenic mouse; type: in vivo
[7] = Hepatocyte stability / intrinsic clearance; type: in vitro ADME, human
[8] = target: CYP3A4 (Homo sapiens, UniProt P08684); test: CYP reaction phenotyping; type: in vitro ADME
CYP3A4, sequence (P08684 whole entry, the tested form may be a part): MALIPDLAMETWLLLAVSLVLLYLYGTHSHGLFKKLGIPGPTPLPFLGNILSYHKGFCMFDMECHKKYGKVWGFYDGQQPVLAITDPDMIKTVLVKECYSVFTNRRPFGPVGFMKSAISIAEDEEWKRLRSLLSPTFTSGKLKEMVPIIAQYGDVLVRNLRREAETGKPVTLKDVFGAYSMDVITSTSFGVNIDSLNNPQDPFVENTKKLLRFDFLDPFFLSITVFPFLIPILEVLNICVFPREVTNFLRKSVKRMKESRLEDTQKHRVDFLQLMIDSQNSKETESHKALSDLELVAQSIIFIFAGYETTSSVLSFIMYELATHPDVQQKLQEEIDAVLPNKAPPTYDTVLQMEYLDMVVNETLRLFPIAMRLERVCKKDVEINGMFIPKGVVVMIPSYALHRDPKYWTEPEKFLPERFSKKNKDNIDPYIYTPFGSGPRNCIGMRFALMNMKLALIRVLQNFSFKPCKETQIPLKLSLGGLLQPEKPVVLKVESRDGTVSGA

[9] = test system: E. coli; test: Neutropenic rat lung infection model; type: in vivo; settings: IV infusion, MDR isolates
[10] = test system: Pseudomonas aeruginosa; test: MIC; settings: for MIC: Pseudomonas aeruginosa
[11] = Dog cardiovascular study; type: in vivo
[12] = test system: A. baumannii; settings: in vivo, iv
[13] = Prediction of human PK by allometry / 2-compartment model; settings: 70 kg
[14] = Plasma protein binding, equilibrium dialysis; type: in vitro ADME, rats; settings: % bound
[15] = test system: K. pneumoniae; test: Neutropenic rat lung infection model; settings: IV infusion, MDR isolates
[16] = MAD study C002-2023-01; type: in vivo, healthy human volunteers; settings: 240 mg, two subjects
[17] = test system: E. faecalis / E. faecium; test: MIC
[18] = test system: AChE, MAO-B, Adrenergic α1 A, 5-HT1A; test: Cerep-88 secondary pharmacology screen
[19] = test system: Citrobacter spp.; test: MIC; settings: IHMA/CARB-X MDR clinical isolates 2019, N=151
[20] = target: P-glycoprotein (P-gp) (Homo sapiens, UniProt P08183); test: P-gp substrate determination; type: in vitro ADME
P-glycoprotein (P-gp), sequence (P08183 whole entry): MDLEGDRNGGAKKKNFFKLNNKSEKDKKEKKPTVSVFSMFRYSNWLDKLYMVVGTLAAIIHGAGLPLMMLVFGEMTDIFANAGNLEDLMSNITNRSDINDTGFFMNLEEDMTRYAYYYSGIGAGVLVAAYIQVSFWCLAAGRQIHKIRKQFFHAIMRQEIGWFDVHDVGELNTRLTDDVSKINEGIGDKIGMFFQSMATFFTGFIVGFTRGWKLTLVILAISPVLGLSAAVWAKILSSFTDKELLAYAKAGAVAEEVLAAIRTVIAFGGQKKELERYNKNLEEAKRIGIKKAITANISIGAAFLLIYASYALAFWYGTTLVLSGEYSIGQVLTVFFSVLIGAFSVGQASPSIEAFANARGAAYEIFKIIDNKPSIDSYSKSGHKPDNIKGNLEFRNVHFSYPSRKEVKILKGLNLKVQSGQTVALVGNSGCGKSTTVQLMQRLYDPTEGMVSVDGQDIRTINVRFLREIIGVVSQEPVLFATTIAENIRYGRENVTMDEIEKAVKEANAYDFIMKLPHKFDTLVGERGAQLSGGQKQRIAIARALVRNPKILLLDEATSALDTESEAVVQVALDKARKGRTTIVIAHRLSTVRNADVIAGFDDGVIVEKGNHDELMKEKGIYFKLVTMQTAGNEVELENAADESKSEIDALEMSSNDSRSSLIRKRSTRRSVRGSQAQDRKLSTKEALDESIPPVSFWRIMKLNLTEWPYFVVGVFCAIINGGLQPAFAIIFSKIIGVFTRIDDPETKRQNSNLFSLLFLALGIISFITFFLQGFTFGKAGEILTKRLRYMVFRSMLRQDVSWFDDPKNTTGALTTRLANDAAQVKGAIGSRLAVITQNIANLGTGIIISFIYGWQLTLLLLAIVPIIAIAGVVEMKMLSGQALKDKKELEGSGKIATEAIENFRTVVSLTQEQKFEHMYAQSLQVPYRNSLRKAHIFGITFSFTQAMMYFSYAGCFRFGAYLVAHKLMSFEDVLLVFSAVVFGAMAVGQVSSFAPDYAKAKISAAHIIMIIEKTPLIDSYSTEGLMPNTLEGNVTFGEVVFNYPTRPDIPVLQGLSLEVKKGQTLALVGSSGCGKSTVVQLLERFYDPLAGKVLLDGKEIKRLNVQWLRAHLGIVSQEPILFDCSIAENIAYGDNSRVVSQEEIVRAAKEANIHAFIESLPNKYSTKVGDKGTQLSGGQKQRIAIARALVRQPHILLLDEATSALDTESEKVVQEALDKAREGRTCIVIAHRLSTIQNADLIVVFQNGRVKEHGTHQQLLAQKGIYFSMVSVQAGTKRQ

[21] = test system: P. aeruginosa
[22] = test system: Neisseria gonorrhoeae; test: MIC; settings: IHMA/CARB-X isolates 1997 to 2021, N=90
[23] = IVIVE of clearance in humans; set-up: species or system human
[24] = test system: MDR Gram-negative and Gram-positive pathogens; test: MIC
[25] = Blood-brain barrier crossing
[26] = test system: Staphylococcus aureus; test: MIC
[27] = test system: Morganella morganii; test: MIC; settings: IHMA/CARB-X MDR clinical isolates 2019, N=42
[28] = test system: other cardiac ion channels; test: Other cardiac ion channels; type: cell-based
[29] = test system: E. cloacae; type: cell-based
[30] = test system: E. coli
[31] = Hepatocyte stability / intrinsic clearance; type: in vitro ADME, rat
[32] = test system: A. baumannii
[33] = Hepatocyte stability / intrinsic clearance; type: in vitro ADME, monkey
[34] = target: hERG (Homo sapiens, UniProt Q12809); test: hERG manual patch-clamp; type: cell-based
hERG, sequence (Q12809 whole entry): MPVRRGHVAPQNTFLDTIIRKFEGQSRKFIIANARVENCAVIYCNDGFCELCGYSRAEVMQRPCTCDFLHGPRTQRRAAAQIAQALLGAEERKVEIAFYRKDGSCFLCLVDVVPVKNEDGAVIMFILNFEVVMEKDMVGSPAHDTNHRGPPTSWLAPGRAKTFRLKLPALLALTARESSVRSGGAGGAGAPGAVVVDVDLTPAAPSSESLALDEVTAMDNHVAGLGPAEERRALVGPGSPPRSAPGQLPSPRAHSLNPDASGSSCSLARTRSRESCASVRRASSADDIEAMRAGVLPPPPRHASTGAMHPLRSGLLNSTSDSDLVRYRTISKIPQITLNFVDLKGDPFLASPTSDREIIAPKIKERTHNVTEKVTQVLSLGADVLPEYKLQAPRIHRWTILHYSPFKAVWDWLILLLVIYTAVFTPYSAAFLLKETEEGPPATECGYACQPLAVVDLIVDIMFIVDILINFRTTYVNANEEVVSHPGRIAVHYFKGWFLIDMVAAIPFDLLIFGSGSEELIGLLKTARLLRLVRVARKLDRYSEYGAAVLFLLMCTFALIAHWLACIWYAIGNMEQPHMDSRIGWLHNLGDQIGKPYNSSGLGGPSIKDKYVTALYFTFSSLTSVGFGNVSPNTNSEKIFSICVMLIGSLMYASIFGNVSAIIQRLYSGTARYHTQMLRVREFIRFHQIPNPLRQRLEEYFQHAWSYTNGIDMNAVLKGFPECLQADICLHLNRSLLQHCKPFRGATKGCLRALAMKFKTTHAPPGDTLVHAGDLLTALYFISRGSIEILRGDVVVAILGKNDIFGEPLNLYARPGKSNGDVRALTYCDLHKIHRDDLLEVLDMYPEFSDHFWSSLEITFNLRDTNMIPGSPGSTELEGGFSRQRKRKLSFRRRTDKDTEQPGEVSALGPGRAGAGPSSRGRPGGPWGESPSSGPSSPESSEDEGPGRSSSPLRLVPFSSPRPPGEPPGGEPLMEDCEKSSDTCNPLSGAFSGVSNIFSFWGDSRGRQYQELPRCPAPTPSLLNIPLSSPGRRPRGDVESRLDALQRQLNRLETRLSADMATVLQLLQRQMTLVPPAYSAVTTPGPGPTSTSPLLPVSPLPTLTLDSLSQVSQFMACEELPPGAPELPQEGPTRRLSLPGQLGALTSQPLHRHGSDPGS

[35] = test system: Serratia marcescens; test: MIC; settings: IHMA/CARB-X MDR clinical isolates 2019, N=45
[36] = target: bile salt export pump (BSEP) (Homo sapiens, UniProt O95342); test: BSEP inhibition and substrate determination; type: in vitro ADME; settings: up to 50 µM
bile salt export pump (BSEP), sequence (O95342 whole entry, species assumed): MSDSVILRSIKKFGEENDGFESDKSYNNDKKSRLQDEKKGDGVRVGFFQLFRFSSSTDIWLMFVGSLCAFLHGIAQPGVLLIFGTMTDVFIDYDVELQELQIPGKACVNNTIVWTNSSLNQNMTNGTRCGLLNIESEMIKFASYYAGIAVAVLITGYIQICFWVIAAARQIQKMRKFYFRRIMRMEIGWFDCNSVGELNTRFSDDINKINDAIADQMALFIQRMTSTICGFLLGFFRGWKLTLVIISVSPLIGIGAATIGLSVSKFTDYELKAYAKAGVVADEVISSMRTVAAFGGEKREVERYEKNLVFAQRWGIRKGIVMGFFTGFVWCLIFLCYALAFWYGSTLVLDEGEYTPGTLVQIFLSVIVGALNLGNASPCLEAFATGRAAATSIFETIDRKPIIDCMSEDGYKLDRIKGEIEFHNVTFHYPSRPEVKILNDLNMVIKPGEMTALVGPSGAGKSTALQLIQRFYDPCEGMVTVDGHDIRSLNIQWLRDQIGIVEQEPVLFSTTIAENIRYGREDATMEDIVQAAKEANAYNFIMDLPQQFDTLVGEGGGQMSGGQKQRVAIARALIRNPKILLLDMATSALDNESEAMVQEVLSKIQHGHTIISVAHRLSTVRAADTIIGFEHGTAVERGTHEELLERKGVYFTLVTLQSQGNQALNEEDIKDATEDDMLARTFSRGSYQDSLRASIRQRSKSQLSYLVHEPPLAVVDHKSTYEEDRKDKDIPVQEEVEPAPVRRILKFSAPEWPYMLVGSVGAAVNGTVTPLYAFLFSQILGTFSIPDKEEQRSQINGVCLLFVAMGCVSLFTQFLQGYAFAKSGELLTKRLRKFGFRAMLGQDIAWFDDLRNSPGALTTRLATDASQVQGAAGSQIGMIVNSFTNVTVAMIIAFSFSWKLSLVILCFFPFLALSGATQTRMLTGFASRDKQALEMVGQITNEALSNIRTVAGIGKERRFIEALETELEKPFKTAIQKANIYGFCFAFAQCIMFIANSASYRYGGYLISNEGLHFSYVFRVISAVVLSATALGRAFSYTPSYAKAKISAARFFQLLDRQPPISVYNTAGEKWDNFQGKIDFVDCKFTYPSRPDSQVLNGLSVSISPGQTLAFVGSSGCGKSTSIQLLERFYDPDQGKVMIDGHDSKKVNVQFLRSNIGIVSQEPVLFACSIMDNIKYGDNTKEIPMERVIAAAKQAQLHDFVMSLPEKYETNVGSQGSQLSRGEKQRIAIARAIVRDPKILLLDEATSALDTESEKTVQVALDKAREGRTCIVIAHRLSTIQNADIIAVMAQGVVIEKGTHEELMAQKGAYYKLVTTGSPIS

[37] = test system: K. pneumoniae; test: Killing kinetics assay; type: cell-based; settings: 0.5X to 16X MIC, susceptible and MDR strains
[38] = test system: P. aeruginosa; test: Killing kinetics assay; type: cell-based; settings: 0.5X to 16X MIC, susceptible and MDR strains
[39] = test system: K. pneumoniae; test: Neutropenic mouse; type: in vivo; settings: SC every 8 h, wild-type and MDR isolates
[40] = test system: A. baumannii; test: Neutropenic mouse; type: in vivo; settings: SC every 8 h, wild-type and MDR isolates
[41] = test system: Proteus spp.; test: MIC; settings: IHMA/CARB-X MDR clinical isolates 2019, N=152
[42] = test system: Stenotrophomonas maltophilia; test: MIC; settings: IHMA/CARB-X MDR clinical isolates 2019, N=150

Cn1c(=O)ccc2ccc(F)c(CCNC[C@H]3CN(c4cnc5c(n4)NC(=O)CO5)C(=O)O3)c21 [BWC0977, 6-[(5S)−5-[[[2-(7-Fluoro-1,2-dihydro-1-methyl-2-oxo-8-quinolinyl)ethyl]amino]methyl]−2-oxo-3-oxazolidinyl]−2H-pyrazino[2,3-b]−1,4-oxazin-3(4H)-one]
partitioning into red blood cells [1]: neither partitions into red blood cells | total dose observed unchanged in the bile [2]: about 1.5% | tolerability [3]: generally well tolerated | VD at steady state (Vss) across the dose levels ([4]; 120-1050 mg): 44.03 to 51.50 L/h | dose proportionality of plasma Cmax and AUC ([4]; 120-1050 mg): increased proportionally with dose | half-life ([4]; 120 mg): 3.3 h | half-life ([4]; 1050 mg): 8.4 h | clearance predicted from CLint, % of liver blood flow (LBF) [5]: < 30% | dose-ranging efficacy (bacterial burden) ([6]; SC every 8 h, wild-type and MDR isolates): excellent dose-response | PK-PD driver of efficacy ([6]; dose fractionation 160 mg/kg/day SC, P. aeruginosa NCTC 13921): free area-under-the-curve over MIC (fAUC/MIC) as the efficacy driver | clearance predicted from CLint, % of liver blood flow (LBF) [7]: < 30% | metabolism by CYP3A4 in reaction phenotyping assay [8]: 80% | dose-response efficacy [9]: excellent bactericidal dose-response | MIC90 ([10]; IHMA/CARB-X MDR clinical isolates 2019, N=300): 1 µg/mL (≈ 2.13 µM) | MIC ([10]; NCTC13921, P. aeruginosa NCTC 13921): 0.25 µg/mL (≈ 0.534 µM) | MIC ([10]; read-out: median MIC, panel of ATCC strains): 0.25 µg/mL (≈ 0.534 µM) | increase in QTc ([11]; 1-hour infusion of 30 or 60 mg/kg, within 3−6 h): 4 to 11 ms | heart rate ([11]; 30 and 60 mg/kg): notable increase in heart rate | dose-response efficacy [12]: excellent bactericidal dose-response | predicted human CL [13]: 20.17 L/h | predicted human CLD2 [13]: 1.002 L/h | predicted human V1 [13]: 40.84 L | predicted human V2 [13]: 23.13 L | plasma protein binding [14]: 94% | dose-response efficacy [15]: excellent bactericidal dose-response | systemic adverse events [16]: no systemic adverse events | infusion site finding on ultrasound ([16]; 12/14 and 14/14 doses): small non-occlusive thrombus proximal to the infusion site in both volunteers | MIC90 [17]: 0.06 µg/mL (≈ 0.128 µM) | result in Cerep-88 screen [18]: hits | MIC90 [19]: 1 µg/mL (≈ 2.13 µM) | P-gp substrate status [20]: substrate | in vitro resistance frequency [21]: < 1 × 10^−9 | resistance frequency [21]: < 1 × 10^−9 | MIC90 [22]: ≤ 0.016 µg/mL | predicted human plasma CLp [23]: 5.5 mL/min/kg | predicted % human LBF ([23]; human LBF […]): 28% | MIC90 [24]: 0.03 to 2 µg/mL (≈ 0.064 to 4.27 µM) | crossing of the blood-brain barrier [25]: nor crosses the blood-brain barrier | MIC ([26]; Staphylococcus aureus, read-out: median MIC): 0.01 µg/mL (≈ 0.0213 µM) | MIC90 ([26]; global panel, N=560, including MRSA): 0.03 µg/mL (≈ 0.064 µM) | MIC90 [27]: 1 µg/mL (≈ 2.13 µM) | MIC90 ([27]; Morganella morganii): 1 µg/mL (≈ 2.13 µM) | concentration up to which other cardiac ion channels are not inhibited [28]: > 300 µM | in vitro killing kinetics [29]: significant bactericidal activity | in vitro resistance frequency [30]: < 1 × 10^−9 | resistance frequency [30]: 4 × 10^−9 | clearance predicted from CLint, % of liver blood flow (LBF) [31]: < 30% | in vitro resistance frequency [32]: 2.5 × 10^−9 | resistance frequency [32]: 2.5 × 10^−8 | clearance predicted from CLint, % of liver blood flow (LBF) [33]: < 30% | pIC50 [34]: 4.30 | MIC90 [35]: 1 µg/mL (≈ 2.13 µM) | BSEP substrate / inhibitor status [36]: neither a substrate nor an inhibitor | in vitro killing kinetics [37]: significant bactericidal activity | in vitro killing kinetics [38]: significant bactericidal activity | dose-ranging efficacy (bacterial burden) [39]: excellent dose-response | dose-ranging efficacy (bacterial burden) [40]: excellent dose-response | MIC90 [41]: 0.5 µg/mL (≈ 1.07 µM) | MIC90 [42]: 0.25 µg/mL (≈ 0.534 µM)

From paper PMC11410943 (Nature Communications, 2024)
